Reference: ChEMBL document CHEMBL3400059, “Synthesis and structure-activity relationships of a series of 4-methoxy-3-(piperidin-4-yl)oxy benzamides as novel inhibitors of the presynaptic choline transporter” (Bioorg Med Chem Lett, 2015)
Calls of active or inactive are those of the source. No cut-off for these calls is given here.

Key:
[1] = target: T1, High affinity choline transporter 1 (Homo sapiens, UniProt Q9GZV3, L531A/V532A); assay: Inhibition of human CHT […] mutant expressed in HEK293 cells by membrane depolarization assay; format: cell-based
[2] = test system: T2, High affinity choline transporter 1 (Homo sapiens), Q9GZV3 [L531A,V532A]; assay: Inhibition of human CHT […] mutant expressed in HEK293 cells assessed as remaining transporter activity at 5 uM in presence of 100 nM [3H]choline by [3H]choline uptake assay; format: cell-based
T2 sequence (whole entry): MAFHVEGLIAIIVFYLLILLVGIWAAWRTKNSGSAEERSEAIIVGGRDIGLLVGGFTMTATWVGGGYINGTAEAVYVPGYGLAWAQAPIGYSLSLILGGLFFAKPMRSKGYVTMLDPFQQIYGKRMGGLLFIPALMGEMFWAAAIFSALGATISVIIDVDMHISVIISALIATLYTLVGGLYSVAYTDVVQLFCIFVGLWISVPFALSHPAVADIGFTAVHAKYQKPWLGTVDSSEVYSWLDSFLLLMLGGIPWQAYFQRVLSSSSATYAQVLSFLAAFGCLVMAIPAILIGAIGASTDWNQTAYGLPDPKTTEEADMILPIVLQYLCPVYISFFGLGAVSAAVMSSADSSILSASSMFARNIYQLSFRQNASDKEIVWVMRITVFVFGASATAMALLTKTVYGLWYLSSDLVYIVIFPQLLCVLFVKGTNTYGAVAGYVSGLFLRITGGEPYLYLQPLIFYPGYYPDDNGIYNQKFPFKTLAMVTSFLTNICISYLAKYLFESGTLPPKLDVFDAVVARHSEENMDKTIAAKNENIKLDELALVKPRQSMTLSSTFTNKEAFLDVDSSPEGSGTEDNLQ

[3] = test system: T2, High affinity choline transporter 1 (Homo sapiens), Q9GZV3 [L531A,V532A]; assay: Inhibition of human CHT […] mutant expressed in HEK293 cells assessed as remaining transporter activity at 5 uM in presence of 10 uM [3H]choline by [3H]choline uptake assay; format: cell-based
[4] = target: T1, High affinity choline transporter 1; assay: Inhibition of human CHT […] mutant expressed in HEK293 cells assessed as remaining transporter activity in presence of 10 uM [3H]choline by [3H]choline uptake assay; format: cell-based
[5] = target: T1, High affinity choline transporter 1; assay: Inhibition of human CHT […] mutant expressed in HEK293 cells assessed as remaining transporter activity in presence of 100 nM [3H]choline by [3H]choline uptake assay; format: cell-based
[6] = Hepatic clearance in mouse liver microsomes; format: ADME
[7] = Ratio of drug level in brain to plasma in mouse at 1 mg/kg, ip administered as cassette dosing; format: ADME, organism-based; design: dose 1 mg/kg, route intraperitoneal
[8] = test system: Brain; assay: Drug level in mouse brain at 1 mg/kg, ip administered as cassette dosing; format: ADME, organism-based; design: dose 1 mg/kg, route intraperitoneal; settings: in vivo
[9] = target: T3, Cytochrome P450 1A2 (Homo sapiens, UniProt P05177); assay: Inhibition of human CYP1A2; format: ADME
T3 sequence (P05177 whole entry): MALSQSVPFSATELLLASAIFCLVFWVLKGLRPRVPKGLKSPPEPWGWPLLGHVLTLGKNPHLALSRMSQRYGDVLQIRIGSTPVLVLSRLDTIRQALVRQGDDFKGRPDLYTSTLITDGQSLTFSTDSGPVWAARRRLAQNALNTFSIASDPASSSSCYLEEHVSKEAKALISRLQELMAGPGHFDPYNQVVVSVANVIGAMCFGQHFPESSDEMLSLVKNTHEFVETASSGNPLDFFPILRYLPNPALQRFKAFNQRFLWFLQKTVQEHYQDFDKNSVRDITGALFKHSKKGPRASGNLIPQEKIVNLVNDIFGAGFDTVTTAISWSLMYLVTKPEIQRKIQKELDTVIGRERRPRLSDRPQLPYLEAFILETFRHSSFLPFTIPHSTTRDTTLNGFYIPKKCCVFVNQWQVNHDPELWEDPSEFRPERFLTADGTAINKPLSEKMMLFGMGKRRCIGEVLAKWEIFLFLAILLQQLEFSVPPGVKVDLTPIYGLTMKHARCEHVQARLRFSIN

[10] = target: Cytochrome P450 2D6 (Homo sapiens, UniProt P10635); assay: Inhibition of human CYP2D6; format: ADME
Chain of Cytochrome P450 2D6 (P10635 whole entry): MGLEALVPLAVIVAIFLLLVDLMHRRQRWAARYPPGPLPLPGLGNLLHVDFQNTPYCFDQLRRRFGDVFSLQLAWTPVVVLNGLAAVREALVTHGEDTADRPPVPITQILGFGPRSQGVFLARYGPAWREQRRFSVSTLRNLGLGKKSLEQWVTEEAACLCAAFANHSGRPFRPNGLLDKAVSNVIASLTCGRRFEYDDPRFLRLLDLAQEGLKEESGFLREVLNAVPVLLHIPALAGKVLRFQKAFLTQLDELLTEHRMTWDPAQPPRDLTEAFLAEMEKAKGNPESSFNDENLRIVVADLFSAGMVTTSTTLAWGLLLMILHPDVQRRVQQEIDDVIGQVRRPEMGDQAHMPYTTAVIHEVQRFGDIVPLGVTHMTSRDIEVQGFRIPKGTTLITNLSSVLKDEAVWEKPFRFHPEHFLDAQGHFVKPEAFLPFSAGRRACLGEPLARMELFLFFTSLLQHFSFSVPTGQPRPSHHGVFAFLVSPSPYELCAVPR

[11] = test system: Plasma; assay: Fraction unbound in mouse plasma by equilibrium dialysis method; format: ADME, cell-free
[12] = target: Cytochrome P450 3A4 (Homo sapiens, UniProt P08684); assay: Inhibition of human CYP3A4; format: ADME
Chain of Cytochrome P450 3A4 (P08684 whole entry): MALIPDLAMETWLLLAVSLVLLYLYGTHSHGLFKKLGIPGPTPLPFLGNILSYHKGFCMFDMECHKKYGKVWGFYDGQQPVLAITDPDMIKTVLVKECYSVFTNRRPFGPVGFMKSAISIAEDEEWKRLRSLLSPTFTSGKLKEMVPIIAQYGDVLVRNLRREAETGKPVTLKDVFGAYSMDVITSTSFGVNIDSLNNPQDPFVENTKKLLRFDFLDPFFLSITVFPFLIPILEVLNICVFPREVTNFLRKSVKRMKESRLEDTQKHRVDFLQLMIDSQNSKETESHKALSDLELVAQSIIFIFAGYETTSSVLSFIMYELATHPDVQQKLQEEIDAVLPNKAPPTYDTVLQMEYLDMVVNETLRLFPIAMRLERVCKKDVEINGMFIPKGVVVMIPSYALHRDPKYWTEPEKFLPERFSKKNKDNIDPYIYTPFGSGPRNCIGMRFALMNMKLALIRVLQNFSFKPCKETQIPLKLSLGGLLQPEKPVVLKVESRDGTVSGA

[13] = target: Cytochrome P450 2C9 (Homo sapiens, UniProt P11712); assay: Inhibition of human CYP2C9; format: ADME
Chain of Cytochrome P450 2C9 (P11712 whole entry): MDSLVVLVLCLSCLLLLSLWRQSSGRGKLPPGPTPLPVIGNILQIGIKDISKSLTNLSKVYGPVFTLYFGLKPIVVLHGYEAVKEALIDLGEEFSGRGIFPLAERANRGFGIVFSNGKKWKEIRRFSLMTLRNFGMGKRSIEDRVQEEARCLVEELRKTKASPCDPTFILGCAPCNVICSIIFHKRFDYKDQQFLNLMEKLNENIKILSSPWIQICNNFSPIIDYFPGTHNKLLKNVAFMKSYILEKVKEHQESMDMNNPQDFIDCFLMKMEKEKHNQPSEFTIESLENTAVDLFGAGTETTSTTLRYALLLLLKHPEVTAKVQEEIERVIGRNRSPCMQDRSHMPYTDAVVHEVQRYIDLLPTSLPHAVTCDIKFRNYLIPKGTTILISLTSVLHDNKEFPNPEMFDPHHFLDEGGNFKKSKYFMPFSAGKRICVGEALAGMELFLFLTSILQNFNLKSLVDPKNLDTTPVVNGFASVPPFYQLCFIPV

[14] = target: Sodium-dependent dopamine transporter (Homo sapiens) (UniProt Q01959); assay: Inhibition of DAT (unknown origin)
Chain of Sodium-dependent dopamine transporter (Homo sapiens) (Q01959 whole entry): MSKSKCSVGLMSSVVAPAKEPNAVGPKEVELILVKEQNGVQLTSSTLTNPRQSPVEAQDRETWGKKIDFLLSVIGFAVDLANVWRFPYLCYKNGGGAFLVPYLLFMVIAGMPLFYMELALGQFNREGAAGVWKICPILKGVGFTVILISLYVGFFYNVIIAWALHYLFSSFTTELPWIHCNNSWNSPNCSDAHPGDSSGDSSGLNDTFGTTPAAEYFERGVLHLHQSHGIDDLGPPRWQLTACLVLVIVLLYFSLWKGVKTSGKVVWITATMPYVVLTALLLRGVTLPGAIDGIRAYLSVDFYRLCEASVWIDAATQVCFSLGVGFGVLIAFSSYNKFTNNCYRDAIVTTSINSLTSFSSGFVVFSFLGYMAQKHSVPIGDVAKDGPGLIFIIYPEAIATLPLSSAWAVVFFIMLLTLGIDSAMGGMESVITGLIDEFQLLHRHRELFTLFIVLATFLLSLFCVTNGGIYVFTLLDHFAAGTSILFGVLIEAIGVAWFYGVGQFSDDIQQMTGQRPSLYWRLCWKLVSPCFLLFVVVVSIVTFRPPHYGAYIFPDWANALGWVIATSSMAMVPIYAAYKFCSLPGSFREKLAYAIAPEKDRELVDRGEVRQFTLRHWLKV

SMILES: COc1ccc(C(=O)NCc2nc(C)c(C)s2)cc1OC1CCN(C(C)C)CC1
- IC50 [1]: 0.76 µM

SMILES: COc1ccc(C(=O)NCc2cc(C(C)C)no2)cc1OC1CCCCC1
- Activity [2]: 83.2%
- Activity [3]: 87.6%

SMILES: COc1ccc(C(=O)NCCC2=CCCCC2)cc1OC1CCN(C(C)C)CC1
- IC50 [1]: 3.16 µM

SMILES: COc1ccc(C(=O)NCc2cc(C(C)C)no2)cc1OCCN1CCOCC1
- Activity [2]: 36.7%
- IC50 [4]: 1.77 µM
- IC50 [5]: 6.12 µM
- Activity [3]: 32.1%

SMILES: CCn1nc(C)c(CNC(=O)c2ccc(OC)c(OC3CCN(C(C)C)CC3)c2)c1C
- CLhep predicted [6]: 22.4 mL/min/kg
- BPR [7]: < 0.05
- Activity [2]: 45.8%
- IC50 [4]: 0.91 µM
- Drug uptake ([8]; BLD = below limit of detection): BLD
- IC50 [9]: > 30 µM
- IC50 [5]: 1.58 µM
- Activity [3]: 15.9%
- IC50 [10]: 6.7 µM
- Fu [11]: 0.57
- IC50 [12]: > 30 µM
- IC50 [13]: > 30 µM

SMILES: CCc1cc(CNC(=O)c2ccc(OC)c(OC3CCN(C(C)C)CC3)c2)on1
- IC50 [1]: 0.6 µM

SMILES: COc1ccc(C(=O)NCc2cc(C(C)C)no2)cc1OC1CCCC1
- Activity [2]: 82%
- Activity [3]: 81.3%

SMILES: COc1ccc(C(=O)NCc2cnn(C)c2)cc1OC1CCN(C(C)C)CC1
- Activity [2]: 64.8%
- Activity [3]: 47.5%

SMILES: COc1ccc(C(=O)NCc2cc(C(C)C)no2)cc1OC(C)CN(C)C (centres undefined)
- Activity [2]: 59.7%
- Activity [3]: 28.2%

SMILES: CC(NC(=O)c1ccc(OC2CCN(Cc3ccccn3)CC2)cc1)c1ccccc1 (centres undefined)
- IC50 [1]: 1.26 µM

SMILES: COc1ccc(C(=O)NCc2cc(C(C)C)no2)cc1OCCN1CCCCC1
- CLhep predicted [6]: 58.4 mL/min/kg
- BPR [7]: 0.07
- Activity [2]: 38.3%
- IC50 [4]: 0.53 µM
- Drug uptake [8]: 1.8 ng/g
- IC50 [9]: > 30 µM
- IC50 [5]: 0.76 µM
- Activity [3]: -0.2%
- IC50 [10]: > 30 µM
- Fu [11]: 0.71
- IC50 [12]: > 30 µM
- IC50 [13]: > 30 µM

SMILES: COc1ccc(C(=O)NCc2ccncn2)cc1OC1CCN(C(C)C)CC1
- Activity [2]: 87.7%
- Activity [3]: 71.8%

SMILES: COc1ccc(C(=O)NCc2cc(C(C)C)no2)cc1OC1CCNCC1
- Activity [2]: 51.5%
- Activity [3]: 18.6%

SMILES: COc1ccc(C(=O)NC(C)Cc2ccccn2)cc1OC1CCN(C(C)C)CC1 (centres undefined)
- CLhep predicted [6]: 48.8 mL/min/kg
- BPR [7]: 1.1
- Activity [2]: 46.3%
- IC50 [4]: 1.73 µM
- Drug uptake [8]: 4 ng/g
- IC50 [9]: > 30 µM
- IC50 [5]: 4.12 µM
- Activity [3]: 20.4%
- IC50 [10]: 27.1 µM
- Fu [11]: 0.35
- IC50 [12]: 28.2 µM
- IC50 [13]: > 30 µM

SMILES: COc1ccc(C(=O)NCc2cc(C(C)C)no2)cc1OCC(C)C
- Activity [2]: 99.8%
- Activity [3]: 89.4%

SMILES: COc1ccc(C(=O)NCc2cc(C(C)C)no2)cc1OC1CCN(C)CC1
- CLhep predicted [6]: 29.4 mL/min/kg
- BPR [7]: 0.28
- Activity [2]: 3.1%
- Drug uptake [8]: 3.3 ng/g
- IC50 [9]: > 30 µM
- Activity [3]: -0.9%
- IC50 [10]: > 30 µM
- Fu [11]: 0.48
- inhibition [14]: inactive
- IC50 [13]: > 30 µM

SMILES: COc1ccc(C(=O)NCc2csc(C)n2)cc1OC1CCN(C(C)C)CC1
- CLhep predicted [6]: 82.4 mL/min/kg
- BPR [7]: 0.19
- Activity [2]: 42.6%
- IC50 [4]: 1.64 µM
- Drug uptake [8]: 1.5 ng/g
- IC50 [9]: 10.3 µM
- IC50 [5]: 4.93 µM
- Activity [3]: 18.9%
- IC50 [10]: > 30 µM
- Fu [11]: 0.39
- IC50 [12]: > 30 µM
- IC50 [13]: > 30 µM

SMILES: COc1ccc(C(=O)NCCN2CCCC2)cc1OC1CCN(C(C)C)CC1
- Activity [2]: 37.4%
- IC50 [4]: 1.56 µM
- IC50 [5]: 2.13 µM
- Activity [3]: 9.9%

SMILES: COc1ccc(C(=O)NCc2cc(C(C)C)no2)cc1OC1CCN(C(C)C)CC1
- CLhep predicted [6]: 80.7 mL/min/kg
- BPR [7]: < 0.06
- Activity [2]: 10.9%
- Drug uptake ([8]; BLD = below limit of detection): BLD
- IC50 [9]: > 30 µM
- Activity [3]: -2.8%
- IC50 [10]: > 30 µM
- Fu [11]: 0.57
- IC50 [12]: > 30 µM
- IC50 [13]: > 30 µM

SMILES: COc1ccc(C(=O)NCc2cc(C(C)C)no2)cc1OCCN1CCCC1
- Activity [2]: 50.1%
- Activity [3]: 29.8%

SMILES: CCCN1CCC(Oc2cccc(C(=O)NCCc3ccccc3)c2)CC1
- IC50 [1]: 4.22 µM

SMILES: COc1ccc(C(=O)NC2CCc3ccccc32)cc1OC1CCN(C(C)C)CC1 (centres undefined)
- IC50 [1]: 3.36 µM

SMILES: COc1ccc(C(=O)NCc2cc(C)n(C)n2)cc1OC1CCN(C(C)C)CC1
- Activity [2]: 49.9%
- IC50 [4]: 2.51 µM
- IC50 [5]: 8.09 µM
- Activity [3]: 29.4%

SMILES: COc1ccc(C(=O)NCc2nc(C)cs2)cc1OC1CCN(C(C)C)CC1
- Activity [2]: 42.2%
- IC50 [4]: 1.02 µM
- IC50 [5]: 3.48 µM
- Activity [3]: 13.2%

SMILES: CCn1cc(CNC(=O)c2ccc(OC)c(OC3CCN(C(C)C)CC3)c2)cn1
- Activity [2]: 41.8%
- IC50 [4]: 1.85 µM
- IC50 [5]: 9.27 µM
- Activity [3]: 24.8%

SMILES: COc1ccc(C(=O)NCc2cc(C(C)C)no2)cc1O
- Activity [2]: 86.2%
- Activity [3]: 99.4%

SMILES: COc1ccc(C(=O)NCc2cc(C(C)C)no2)cc1OC1CCCN(C)C1 (centres undefined)
- Activity [2]: 51.7%
- IC50 [4]: 4.54 µM
- IC50 [5]: 1.25 µM
- Activity [3]: 18.4%

SMILES: COc1ccc(C(=O)NC(C)Cc2cnccn2)cc1OC1CCN(C(C)C)CC1 (centres undefined)
- IC50 [1]: 4.47 µM

SMILES: COc1ccc(C(=O)NCc2ccc(C)s2)cc1OC1CCN(C(C)C)CC1
- Activity [2]: 76.4%
- Activity [3]: 36.7%
